Data from ChEMBL document CHEMBL5665443, “Enzyme Inhibitor Single Concentration assay results for EUbOPEN Chemogenomics Library” (2024).

Experiments:
[1] = biological target: T1, Endonuclease III-like protein 1 (Homo sapiens) (UniProt P78549); details: Hit No;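 note: enzyme assay tracking NTHL1 cutting and release of a quenched double-stranded DNA oligo substrate, read as fluorescence at 594 nm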
T1 sequence (whole entry): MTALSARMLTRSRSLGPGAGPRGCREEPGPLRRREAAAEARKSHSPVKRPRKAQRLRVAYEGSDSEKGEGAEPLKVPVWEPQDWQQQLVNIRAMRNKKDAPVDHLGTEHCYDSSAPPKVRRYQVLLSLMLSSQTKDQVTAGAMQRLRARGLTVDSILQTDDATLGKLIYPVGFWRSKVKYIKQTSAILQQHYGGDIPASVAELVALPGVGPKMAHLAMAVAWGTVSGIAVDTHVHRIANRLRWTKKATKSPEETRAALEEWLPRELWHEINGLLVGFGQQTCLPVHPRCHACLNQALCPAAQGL
Description: Inhibition of NTHL1 by quantifying inhibition of NTHL1-mediated cleavage and dissociation of quenched duplex DNA oligonucleotides, measured as fluorescence at 594 nm.

[2] = biological target: G/T mismatch-specific thymine DNA glycosylase (Homo sapiens) (UniProt Q13569); details: Hit No;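 note: human TDG cleavage of quenched duplex DNA oligonucleotides coupled to APE1, strand release read as fluorescence at 594 nm, inhibition of TDG activity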
Chain of G/T mismatch-specific thymine DNA glycosylase (Homo sapiens) (Q13569 whole entry): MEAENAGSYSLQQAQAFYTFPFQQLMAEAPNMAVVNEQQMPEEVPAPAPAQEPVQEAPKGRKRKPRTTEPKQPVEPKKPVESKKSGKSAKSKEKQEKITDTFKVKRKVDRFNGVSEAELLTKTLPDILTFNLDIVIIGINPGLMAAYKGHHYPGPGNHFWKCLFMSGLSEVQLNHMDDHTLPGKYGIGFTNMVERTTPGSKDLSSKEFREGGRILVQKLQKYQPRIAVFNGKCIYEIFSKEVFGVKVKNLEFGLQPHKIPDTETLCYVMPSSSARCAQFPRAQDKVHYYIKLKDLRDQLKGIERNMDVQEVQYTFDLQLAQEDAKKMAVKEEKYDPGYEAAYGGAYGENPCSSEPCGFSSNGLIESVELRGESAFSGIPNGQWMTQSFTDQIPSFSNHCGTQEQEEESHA
Description: Inhibition of TDG by quantifying inhibition of TDG-mediated cleavage and dissociation of quenched duplex DNA oligonucleotides, measured as fluorescence at 594 nm. To generate a functional strand incision and increase turn-over this assay is coupled to APE1.

[3] = biological target: T2, Adenine DNA glycosylase (Homo sapiens) (UniProt Q9UIF7); details: Hit No;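 note: human MUTYH activity read as 594 nm fluorescence from cleavage and release of a quenched DNA duplex, coupled with APE1 for strand incision, lower signal meaning inhibition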
T2 sequence (whole entry): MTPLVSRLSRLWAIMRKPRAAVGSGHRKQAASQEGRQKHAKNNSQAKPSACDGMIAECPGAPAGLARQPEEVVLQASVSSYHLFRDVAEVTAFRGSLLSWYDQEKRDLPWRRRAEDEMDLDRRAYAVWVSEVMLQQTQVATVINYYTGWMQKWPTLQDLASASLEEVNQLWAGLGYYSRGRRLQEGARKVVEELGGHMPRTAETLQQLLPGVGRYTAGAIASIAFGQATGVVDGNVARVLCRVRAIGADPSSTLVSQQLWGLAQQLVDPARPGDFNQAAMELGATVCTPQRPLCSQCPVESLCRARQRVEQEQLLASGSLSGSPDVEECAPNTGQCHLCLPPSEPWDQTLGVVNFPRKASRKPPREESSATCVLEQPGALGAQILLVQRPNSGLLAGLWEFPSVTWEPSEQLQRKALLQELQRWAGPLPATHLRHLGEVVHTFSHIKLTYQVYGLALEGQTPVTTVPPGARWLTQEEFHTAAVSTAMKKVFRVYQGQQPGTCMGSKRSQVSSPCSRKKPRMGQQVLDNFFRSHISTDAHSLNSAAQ
Description: Inhibition of MUTYH by quantifying inhibition of MUTYH-mediated cleavage and dissociation of quenched duplex DNA oligonucleotides, measured as fluorescence at 594 nm. To generate a functional strand incision and increase turn-over this assay is coupled to APE1.

[4] = biological target: T3, Single-strand selective monofunctional uracil DNA glycosylase (Homo sapiens) (UniProt Q53HV7); details: Hit No;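 note: enzymatic SMUG1 assay coupled with APE1, reading fluorescence at 594 nm released when a quenched double-stranded DNA oligonucleotide substrate is cleaved and separated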
T3 sequence (whole entry): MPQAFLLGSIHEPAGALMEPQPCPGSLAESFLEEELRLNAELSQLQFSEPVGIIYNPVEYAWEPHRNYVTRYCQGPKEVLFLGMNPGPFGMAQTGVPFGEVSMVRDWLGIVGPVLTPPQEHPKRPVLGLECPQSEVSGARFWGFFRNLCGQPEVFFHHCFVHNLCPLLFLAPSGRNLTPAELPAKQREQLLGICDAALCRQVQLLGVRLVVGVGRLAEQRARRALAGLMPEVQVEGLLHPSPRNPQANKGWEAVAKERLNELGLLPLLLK
Description: Inhibition of SMUG1 by quantifying inhibition of SMUG1-mediated cleavage and dissociation of quenched duplex DNA oligonucleotides, measured as fluorescence at 594 nm. To generate a functional strand incision and increase turn-over this assay is coupled to APE1.

[5] = biological target: Uracil-DNA glycosylase (Homo sapiens) (UniProt P13051); details: Hit No;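 note: UNG excision on a quenched double-stranded DNA oligo probe, with APE1 added for strand incision and turnover, read as fluorescence at 594 nm as strands separate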
Chain of Uracil-DNA glycosylase (Homo sapiens) (P13051 whole entry): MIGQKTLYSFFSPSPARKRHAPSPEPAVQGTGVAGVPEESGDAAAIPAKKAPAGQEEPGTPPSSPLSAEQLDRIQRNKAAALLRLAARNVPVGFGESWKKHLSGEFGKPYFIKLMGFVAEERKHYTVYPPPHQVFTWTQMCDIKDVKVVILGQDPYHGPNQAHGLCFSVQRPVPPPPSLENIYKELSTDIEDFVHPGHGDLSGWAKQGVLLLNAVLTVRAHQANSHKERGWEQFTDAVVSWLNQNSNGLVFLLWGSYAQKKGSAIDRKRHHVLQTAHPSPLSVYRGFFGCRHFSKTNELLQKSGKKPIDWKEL
Description: Inhibition of UNG by quantifying inhibition of UNG-mediated cleavage and dissociation of quenched duplex DNA oligonucleotides, measured as fluorescence at 594 nm. To generate a functional strand incision and increase turn-over this assay is coupled to APE1.

[6] = biological target: N-glycosylase/DNA lyase (Homo sapiens) (UniProt O15527);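 note: OGG1 cleavage of a quenched duplex DNA oligonucleotide, coupled to APE1 for strand incision, read as fluorescence at 594 nm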
Chain of N-glycosylase/DNA lyase (Homo sapiens) (O15527 whole entry, the tested form may be a part): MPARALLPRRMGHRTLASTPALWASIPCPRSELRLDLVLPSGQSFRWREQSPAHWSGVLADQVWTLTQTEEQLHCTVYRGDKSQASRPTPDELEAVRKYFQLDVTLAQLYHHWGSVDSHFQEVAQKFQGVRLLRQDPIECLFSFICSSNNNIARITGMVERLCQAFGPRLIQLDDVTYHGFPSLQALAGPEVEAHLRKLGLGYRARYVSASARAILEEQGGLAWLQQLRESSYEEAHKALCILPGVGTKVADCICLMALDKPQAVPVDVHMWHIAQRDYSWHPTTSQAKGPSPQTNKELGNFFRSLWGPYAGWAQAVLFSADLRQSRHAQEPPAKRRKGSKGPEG
Description: Inhibition of OGG1 by quantifying inhibition of OGG1-mediated cleavage and dissociation of quenched duplex DNA oligonucleotides, measured as fluorescence at 594 nm. To generate a functional strand incision and increase turn-over this assay is coupled to APE1.

[7] = biological target: Methyl-CpG-binding domain protein 4 (Homo sapiens) (UniProt O95243); details: Hit No;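 note: MBD4 activity read as fluorescence at 594 nm from cleavage and release of a quenched duplex DNA oligonucleotide, with APE1 coupled to incise the strand and raise turnover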
Chain of Methyl-CpG-binding domain protein 4 (Homo sapiens) (O95243 whole entry, the tested form may be a part): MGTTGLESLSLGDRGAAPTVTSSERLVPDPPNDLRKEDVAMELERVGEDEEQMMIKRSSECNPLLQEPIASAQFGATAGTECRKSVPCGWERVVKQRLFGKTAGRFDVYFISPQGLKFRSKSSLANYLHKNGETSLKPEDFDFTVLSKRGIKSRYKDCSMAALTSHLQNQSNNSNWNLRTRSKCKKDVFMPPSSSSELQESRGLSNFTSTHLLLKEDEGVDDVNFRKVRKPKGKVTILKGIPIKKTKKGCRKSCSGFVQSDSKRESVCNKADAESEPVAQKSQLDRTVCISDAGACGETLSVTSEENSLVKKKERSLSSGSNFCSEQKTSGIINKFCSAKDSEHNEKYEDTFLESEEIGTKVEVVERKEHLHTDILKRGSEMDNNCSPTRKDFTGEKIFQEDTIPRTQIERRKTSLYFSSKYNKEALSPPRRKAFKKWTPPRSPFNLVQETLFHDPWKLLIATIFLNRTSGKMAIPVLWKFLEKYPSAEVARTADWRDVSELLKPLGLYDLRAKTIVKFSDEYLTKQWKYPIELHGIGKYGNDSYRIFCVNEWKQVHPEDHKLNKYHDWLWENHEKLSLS
Description: Inhibition of MBD4 by quantifying inhibition of MBD4-mediated cleavage and dissociation of quenched duplex DNA oligonucleotides, measured as fluorescence at 594 nm. To generate a functional strand incision and increase turn-over this assay is coupled to APE1.

[8] = biological target: T4, Endonuclease 8-like 2 (Homo sapiens) (UniProt Q969S2); details: Hit No;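 note: fluorescence at 594 nm reports NEIL2 cutting and release of a quenched double-stranded DNA oligo substrate, reduced signal read as inhibition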
T4 sequence (whole entry): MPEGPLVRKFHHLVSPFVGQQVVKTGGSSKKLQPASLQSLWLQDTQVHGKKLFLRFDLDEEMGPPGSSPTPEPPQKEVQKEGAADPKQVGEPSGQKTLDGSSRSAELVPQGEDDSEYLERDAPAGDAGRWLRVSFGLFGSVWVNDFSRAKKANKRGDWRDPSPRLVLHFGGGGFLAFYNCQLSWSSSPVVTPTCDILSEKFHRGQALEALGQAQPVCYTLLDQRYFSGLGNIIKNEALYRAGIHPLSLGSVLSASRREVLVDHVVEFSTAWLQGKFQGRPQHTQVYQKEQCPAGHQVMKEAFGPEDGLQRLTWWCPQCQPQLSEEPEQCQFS
Description: Inhibition of NEIL2 by quantifying inhibition of NEIL2-mediated cleavage and dissociation of quenched duplex DNA oligonucleotides, measured as fluorescence at 594 nm.

[9] = biological target: Endonuclease 8-like 1 (Homo sapiens) (UniProt Q96FI4); details: Hit No;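 note: fluorescence at 594 nm from quenched duplex DNA oligonucleotides released by NEIL1 cleavage and strand separation, reported as reduction of this enzyme activity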
Chain of Endonuclease 8-like 1 (Homo sapiens) (Q96FI4 whole entry): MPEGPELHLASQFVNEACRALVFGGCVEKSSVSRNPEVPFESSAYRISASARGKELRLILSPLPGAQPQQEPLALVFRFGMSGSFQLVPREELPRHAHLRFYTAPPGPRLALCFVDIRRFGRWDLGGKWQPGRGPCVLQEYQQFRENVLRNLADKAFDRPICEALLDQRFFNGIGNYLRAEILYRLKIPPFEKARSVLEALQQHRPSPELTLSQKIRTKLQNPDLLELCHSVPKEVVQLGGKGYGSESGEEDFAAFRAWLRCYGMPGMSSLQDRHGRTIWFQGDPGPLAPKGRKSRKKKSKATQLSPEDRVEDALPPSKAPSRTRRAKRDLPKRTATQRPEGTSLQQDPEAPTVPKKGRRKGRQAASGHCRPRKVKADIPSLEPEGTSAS
Description: Inhibition of NEIL1 by quantifying inhibition of NEIL1-mediated cleavage and dissociation of quenched duplex DNA oligonucleotides, measured as fluorescence at 594 nm.

[10] = Compound Concentration 10.0 uM, Hit No
[11] = Compound Concentration 1.0 uM, Hit No
[12] = Compound Concentration 10.0 uM, Hit Yes

Row | SMILES | inhibition ([1]; Compound Concentration 1.0 uM) | inhibition ([1]; Compound Concentration 10.0 uM) | inhibition ([2]; Compound Concentration 1.0 uM) | inhibition ([2]; Compound Concentration 10.0 uM) | inhibition ([3]; Compound Concentration 1.0 uM) | inhibition ([3]; Compound Concentration 10.0 uM) | inhibition ([4]; Compound Concentration 1.0 uM) | inhibition ([4]; Compound Concentration 10.0 uM) | inhibition ([5]; Compound Concentration 1.0 uM) | inhibition ([5]; Compound Concentration 10.0 uM) | inhibition [6, 10] | inhibition ([7]; Compound Concentration 10.0 uM) | inhibition ([8]; Compound Concentration 10.0 uM) | inhibition ([9]; Compound Concentration 1.0 uM) | inhibition ([9]; Compound Concentration 10.0 uM) | inhibition [6, 11] | inhibition ([7]; Compound Concentration 1.0 uM) | inhibition ([8]; Compound Concentration 1.0 uM) | inhibition [6, 12]
1 | CC1=C(C#N)C(c2ccc3c(c2)c(NC(=O)c2ccccc2C)nn3C)C(C#N)=C(C)N1 | 2.88% | -3.26% | 29.4% | 58.9% | -2.97% | 15.1% | 16.1% | 24.1% | 1.91% | 6.97% | 7.85% | 65.1% | 0.0213% | 1.19% | -2.11% | – | – | – | –
2 | CN(C)C(=O)Cn1cc(-c2ccc(-c3cncc4ccccc34)cc2)cn1 | -6.19% | – | 40.2% | – | 5.04% | – | 16.6% | – | 0.741% | – | – | – | – | -4.09% | – | -1.89% | 30% | -1.92% | –
3 | O=C(O)Cc1cccc(OCCCN(Cc2cccc(C(F)(F)F)c2Cl)CC(c2ccccc2)c2ccccc2)c1 | – | 2% | – | 54% | – | 2.57% | – | 33.2% | – | 8.18% | – | 61.5% | 5.89% | – | -4.83% | – | – | – | 106%
4 | CCNC(=O)N1CCCN(c2ccc(C(=O)NCCc3ccc(Cl)cc3Cl)cc2NC(=O)c2cccc(Cl)c2)CC1 | – | -5.21% | – | 3.38% | – | 5.24% | – | 5.69% | – | 3.51% | -8.02% | -1.37% | 3.98% | – | 3.27% | – | – | – | –
5 | O=C(NCCCN1CCOC1=O)c1cnc(NCc2cc(Br)ccc2Br)nc1NC1CCCC1 | – | -4.1% | – | 48.3% | – | 8.44% | – | 15.1% | – | 4.06% | 2.35% | -6.01% | 8.58% | – | 5.29% | – | – | – | –
6 | CC(=O)Nc1ncc(CN2CCC[C@H](Cc3cc(C)nc(C)c3)C2)s1 | – | -3.26% | – | 48.4% | – | 9.89% | – | 18.4% | – | 6.88% | 2.54% | 96.5% | -5.08% | – | 1.53% | – | – | – | –
7 | CC(C)(C[C@H]1CN(S(=O)(=O)c2cccc(C(F)(F)F)c2)c2cc(-c3cc(F)cc(OC(F)F)c3)ccc2O1)C(=O)O | – | -3.92% | – | 72.3% | – | 4.92% | – | 22.1% | – | 3.71% | – | 69% | 1.55% | – | -6.65% | – | – | – | 101%
8 | CC(C)(O)CNc1ncc(-c2ccnc(Nc3ccnc(Cl)c3)n2)c(CC2CC2)n1 | – | 5.67% | – | 44.6% | – | 0.0658% | – | 21.2% | – | -2.03% | -4.97% | -8.47% | -9.73% | – | -7.52% | – | – | – | –
9 | CCCCN1CCC(COC(=O)c2cc(Cl)c(N)c3c2OCCO3)CC1 | – | -3.21% | – | 14.3% | – | -7.02% | – | 8.49% | – | -2.45% | -1.24% | 4.39% | 2.51% | – | 5.28% | – | – | – | –
10 | CC(C)c1cc(Oc2c(Cl)cc(-n3nc(C#N)c(=O)[nH]c3=O)cc2Cl)n[nH]c1=O | – | 7.26% | – | 50.8% | – | 14% | – | 5.92% | – | -0.0293% | 28.8% | 53.3% | 7.67% | – | -7.26% | – | – | – | –
11 | N#CN1CC[C@H](C(=O)Nc2nc3c(s2)CN(C(=O)CN=[N+]=[N-])CC3)C1 | – | 7.92% | – | 40.4% | – | -6.77% | – | 6.53% | – | 1.18% | -6.61% | 53.6% | 5.89% | – | 3.04% | – | – | – | –
12 | Fc1ccc(-c2c3cccc(C(F)(F)F)c3nn2Cc2ccc(F)cc2Cl)cc1 | – | -1.29% | – | 53.1% | – | 1.43% | – | 12.2% | – | 4.08% | 8% | 53.9% | -0.489% | – | -7.41% | – | – | – | –
13 | Cc1cc(Nc2nccc(C)n2)cc(-c2cnc([C@@]3(O)CC[C@H](C(=O)O)C(C)(C)C3)s2)c1 | -4.56% | – | 40.8% | – | 3.53% | – | 13.6% | – | 2.21% | – | – | – | – | -7.58% | – | 9.85% | 25.6% | -5.61% | –
14 | NC1(c2ccc(-c3nc4c(O)ccnn4c3-c3ccccc3)cc2)CCC1 | -7.86% | – | 59.1% | 52.1% | 23.6% | 14.3% | 19.9% | 19.3% | 7.66% | -0.0214% | – | 29% | -3.27% | -7.26% | -6.47% | 10.4% | 76.1% | -0.489% | –
15 | COc1ncc(-c2ccc3nccc(-c4ccnnc4)c3c2)cc1NS(=O)(=O)c1ccc(F)cc1F | 9.15% | – | 51.7% | – | 13.2% | – | -0.754% | – | -3.82% | – | – | – | – | -9.77% | – | 1.04% | 24% | 15.6% | –
16 | N#Cc1cc(F)cc(-c2nc(-c3ccc(F)cn3)no2)c1 | – | -9.34% | – | 2.89% | – | -0.521% | – | -0.692% | – | -3.92% | -9.37% | 0.258% | -9.52% | – | -4.29% | – | – | – | –
17 | CCC(=O)N1CCN(c2ccc(-n3c(=O)ccc4cnc5ccc(-c6cnc7ccccc7c6)cc5c43)cc2C(F)(F)F)CC1 | 6.36% | – | 59% | – | 15.3% | – | 24.3% | – | 3.95% | – | – | – | – | -7.39% | – | 10.6% | -7.49% | -7.57% | –
18 | O=C(O)c1ccc(C(=O)N[C@@H](c2ccc(OC(F)(F)F)c(F)c2)c2ncccc2F)nc1 | – | 22.9% | – | 8.79% | – | 7.76% | – | -6.46% | – | -9.18% | -2.45% | 11.1% | 13.9% | – | 5.2% | – | – | – | –
19 | CC(C)(O)[C@H](F)CN1Cc2cc(NC(=O)c3cnn4cccnc34)c(N3CCOCC3)cc2C1=O | – | 0.755% | – | 45.3% | – | -1.18% | – | 15.8% | – | 2.48% | 0.815% | 25.9% | 3.79% | – | -5.19% | – | – | – | –
20 | CCCCCNC(=O)N1CCC(CN(Cc2ccc(Cl)cc2)Cc2ccc([N+](=O)[O-])s2)C1 (configuration not stated) | – | 1.34% | – | 98.5% | – | -5.57% | – | 13.7% | – | 9.26% | 13.5% | 57.7% | -1.51% | – | -3.17% | – | – | – | –
21 | CCC[C@@H]1CNCc2c1[nH]c(=O)c(C#N)c2N1CCC2(CC1)CC2 | – | -9.18% | – | 98.8% | – | 7.93% | – | 17.4% | – | 2.58% | 27.9% | 65.3% | -5.59% | – | -1.35% | – | – | – | –
